Measurements taken from US8748440B2 (Exelixis, Inc., priority 2002, dated 2014).

Biological target: T1, FXR (CMX-hFXR) (Homo sapiens, UniProt Q96RI1)
T1 construct: expressed in transfected cells; host or cells: CV-1 African Green Monkey Kidney cells
T1 sequence (Q96RI1 1-472 isoform Q96RI1-2): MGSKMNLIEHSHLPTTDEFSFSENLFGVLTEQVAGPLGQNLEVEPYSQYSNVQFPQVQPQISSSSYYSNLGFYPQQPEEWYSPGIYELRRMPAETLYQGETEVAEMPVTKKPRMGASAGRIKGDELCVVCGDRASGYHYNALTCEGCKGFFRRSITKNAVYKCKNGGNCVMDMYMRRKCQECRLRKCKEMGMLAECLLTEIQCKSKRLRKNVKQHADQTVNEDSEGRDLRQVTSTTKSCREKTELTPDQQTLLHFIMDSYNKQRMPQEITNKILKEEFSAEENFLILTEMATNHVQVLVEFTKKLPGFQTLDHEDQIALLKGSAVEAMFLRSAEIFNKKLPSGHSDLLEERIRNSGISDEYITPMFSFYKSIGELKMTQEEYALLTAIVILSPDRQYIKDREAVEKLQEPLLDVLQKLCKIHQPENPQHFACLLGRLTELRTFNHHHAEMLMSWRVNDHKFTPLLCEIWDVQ
T1 sequence (P19793 1-462 partner): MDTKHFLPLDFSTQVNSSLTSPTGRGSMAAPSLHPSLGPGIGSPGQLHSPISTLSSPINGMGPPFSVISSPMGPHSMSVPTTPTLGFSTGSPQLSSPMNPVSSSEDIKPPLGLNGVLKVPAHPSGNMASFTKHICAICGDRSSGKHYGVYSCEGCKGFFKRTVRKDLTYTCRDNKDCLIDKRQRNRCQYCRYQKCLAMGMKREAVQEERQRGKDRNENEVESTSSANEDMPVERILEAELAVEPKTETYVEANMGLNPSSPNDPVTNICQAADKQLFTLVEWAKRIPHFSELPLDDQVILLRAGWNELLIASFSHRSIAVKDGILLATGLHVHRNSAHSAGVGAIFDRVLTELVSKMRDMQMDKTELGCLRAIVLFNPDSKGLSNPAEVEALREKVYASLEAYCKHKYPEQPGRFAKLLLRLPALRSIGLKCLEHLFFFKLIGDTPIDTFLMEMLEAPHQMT
Assay: FXR co-transfection assay (FXR/ECREx7)
Format: cell-based
Details: for EC50: CV-1 cells, agonist mode; for Emax: relative to maximum response of chenodeoxycholic acid (CDCA), read-out: % efficacy
Experimental: The basic co-transfection protocol for measuring FXR activity is as follows. CV-1 African Green Monkey Kidney cells are plated 24 hours before transfection to achieve approximately 70-80 percent confluency. Cells are transfected with CMX-hFXR, CMX-RXRα, Luc12 reporter (ECREx7-Tk-Luciferase), and a CMX-β-Galactosidase expression vector (See WO 00/76523). The transfection reagent used is DOTAP (Boehringer Mannheim). Cells are incubated with the DOTAP/DNA mixture for 5 hours after which the cells are harvested and plated onto either 96 well or 384 well plates containing the appropriate concentration of test compound. The assay is allowed to continue for an additional 18-20 hours, after which the cells are lysed, with lysis buffer (1% triton X 100, 10% glycerol, 5 mM Dithiothreitol, 1 mM EGTA, 25 mM Tricine, pH 7.8) and the luciferase activity is measured in the presence of Luciferase assay buffer (0.73 mM ATP, 22.3 mM Tricine, 0.11 mM EGTA, 0.55 mM Luciferin, 0.15 mM Coenzyme A, 0.5 mM HEPES, 10 mM Magnesium sulphate) on a standard luminometer plate reader (PE Biosystems, NorthStar Reader).
Both the FXR/ECREx7 co-transfection assay (Example 15) and the TR-FRET assay (Example 16) can be used to establish the EC50/IC50 values for potency and percent activity or inhibition for efficacy. Efficacy defines the activity of a compound relative to a high control (chenodeoxycholic acid, CDCA) or a low control (DMSO/vehicle). The dose response curves are generated from an 8 point curve with concentrations differing by 1/2 LOG units. Each point represents the average of 4 wells of data from a 384 well plate. The curve for the data is generated by using the equation: Y=Bottom+(Top−Bottom)/(1+10^((Log EC50−X)*HillSlope))
The EC50/IC50 is therefore defined as the concentration at which an agonist or antagonist elicits a response that is half way between the Top (maximum) and Bottom (baseline) values. The EC50/IC50 values represented are the averages of at least 3 independent experiments. The determination of the relative efficacy or % control for an agonist is by comparison to the maximum response achieved by chenodeoxycholic acid that is measured individually in each dose response experiment.
For the antagonist assay, CDCA is added to each well of a 384 well plate to elicit a response. The % inhibition for each antagonist is therefore a measurement of the inhibition of the activity of CDCA. In this example, 100% inhibition would indicate that the activity of CDCA has been reduced to baseline levels, defined as the activity of the assay in the presence of DMSO only.

## Cc1ccc(-n2c(C(C)N(C)S(=O)(=O)c3ccc(C(C)(C)C)cc3)nc3ccc(-c4cccs4)cc3c2=O)cc1 (stereo not shown)
  EC50: ~600 nM
  Emax: ~110%

## COc1ccc(-n2c(C(C)N(C)S(=O)(=O)c3ccc(C(C)(C)C)cc3)nc3ccc(OC)cc3c2=O)cc1 (stereo not shown) [4-tert-butyl-N-{1-[6-methoxy-3-(4-methoxyphenyl)-4-oxo-3,4-dihydroquinazolin-2-yl]ethyl}-N-methylbenzenesulfonamide]
  EC50: ~300 nM
  Emax: ~190%
